Reference: article PMC6256925, “The Anti-HIV Actions of 7- and 10-Substituted Camptothecins” (Molecules, 2009)
≈ marks a conversion by molar mass, not a printed value. Entries after “also recorded” stand apart in the source; their conditions may differ. Read-outs that look alike come from different tables or passages of the source.

Legend:
HIV-1 [1] = tested on: HIV-1; design: method as in PMID 11424110; conditions: by inducing selective apoptosis of HIV infected cells; cited from earlier work
HIV-1 [2] = conditions: freshly infected U937 monocytoid cells; cited from earlier work
HIV-1 [3] = tested on: HIV-1; design: method as in PMID 9453250; conditions: latently infected T cell clone; cited from earlier work
HIV-1IIIB = test: Syncytia assay (CPE inhibition), HIV-1IIIB in C8166 cells; type: cell-based
Procedure: (§1) In the presence of 100 μL of various concentrations of the tested compound, C8166 cells (4 × 10^5cells/mL) were infected with virus (HIV-1IIIB, HIV-2CBL-20 or HIV-2ROD) at a multiplicity of infection (M.O.I.) of 0.06. The final volume per well was 200 μL. Control assays were performed without the testing compounds in HIV-1 IIIB infected and uninfected cultures. AZT was included as positive control. After three days of culture, the cytopathic effect (CPE) was measured by counting the number of syncytia in each well under an inverted microscope. EC50 was then calculated.

HIV-1KM018 = test: Inhibition of HIV-1 p24 antigen production in PBMC; type: cell-based
Procedure: Adequate numbers of PHA activated normal PBMC were incubated with HIV-1KM018 (M.O.I. = 0.03) in presence of varying concentrations of the compound. After 3 h of virus adsorption, the cells were washed twice with PBS and incubated with or without various concentration of compound in culture medium supplemented with 50 U/mL human recombinant IL-2 at 1.2 × 10^6 cells/mL for seven days. Half of the medium was changed with corresponding compound concentrations on the third day. At seven days post-infection, HIV-1 p24 antigen in cell-free culture supernatants was analyzed by ELSIA. The percent inhibition of HIV-1 p24 antigen production in PBMC was calculated.

PBMC = test: MTT-based cytotoxicity assay, PBMC; type: cell-based; conditions: PBMC, MTT
Procedure: (§2) Cell lines (C8166, H9, H9/HIV-1IIIB, Jurkat, Jurkat/HIV-1IIIB) were maintained in RPMI-1640 supplemented with 10% heat-inactivated newborn calf serum (Gibco, Auckland, New Zealand). The cells used in all experiments were in log-phase growth. PBMC from healthy donors were isolated by Ficoll-Hypaque centrifugation, then incubated in complete medium containing 5μg/mL phytohemagglutinin (PHA) (Sigma) and 50 U/mL human recombinant IL-2 for 72 h prior to use for antiviral assays. The laboratory-derived viruses (HIV-1IIIB, HIV-2ROD, HIV-2CBL-20) were obtained from the Medical Research Council (MRC), AIDS Reagent Project (UK) and the NIH AIDS Research and Reference Reagent Program (USA). The clinically isolated HIV-1KM018 was obtained from a naive HIV-1-infected individual in Yunnan Province, China, as described. The 50% HIV-1 tissue culture infectious dose (TCID50) was determined and calculated by the Reed and Muench method. Virus stocks were stored in aliquots at −70 °C.
(§3) Cellular toxicity of compounds 1–3 was assessed by the MTT method, as described previously. Briefly, cells were seeded on a microtiter plate in the absence or presence of various concentrations of compounds in triplicate and incubated at 37 °C in a humid atmosphere of 5% CO2 for three days. Twenty microliters of MTT reagent (5 mg/mL in PBS) was added to each well, then incubated at 37 °C for 4 h. One hundred microliters of 50% DMF-20% SDS was then added. After the formazan was dissolved completely, the plates were read on a Bio-Tek ELx 800 ELISA reader at 595 nm/630 nm. The results were shown as absorbance values, and the CC50 was calculated.

C8166 = test: MTT-based cytotoxicity assay, C8166; type: cell-based; conditions: C8166, MTT
Procedure: as §3

equine anemia virus = tested on: equine anemia virus; design: method as in PMID 11725078; conditions: cited from earlier work
HIV = tested on: HIV; design: method as in PMID 11725078; conditions: cited from earlier work
HIV-2ROD = test: Syncytia assay (CPE inhibition), HIV-2ROD in C8166 cells; type: cell-based
Procedure: as §1

HIV-2CBL-20 = test: Syncytia assay (CPE inhibition), HIV-2CBL-20 in C8166 cells; type: cell-based
Procedure: as §1

[4] = MTT-based cytotoxicity assay, PBMC; type: cell-based; conditions: human
Procedure: as §2, §3

[5] = MTT-based cytotoxicity assay, C8166; type: cell-based; conditions: human
Procedure: as §3

HIV-1 integrase = target: T1, HIV-1 integrase (Human immunodeficiency virus type 1 group M subtype B, UniProt P04585); test: Binding to HIV-1 integrase by SPR (BIAcore)
T1 construct: Integrase was immobilized on the surface of the chip
Procedure: The interaction between the compound and HIV-1 integrase (IN) was determined by SPR using a BIAcore 3000TM biosensor system as previously described. Integrase was immobilized on the surface of the chip. To allow association, various concentrations of the compound diluted in HBS-EP was applied to a chip containing immobilized integrase. Dissociation of the compound from the integrase was monitored in real-time after application of buffer to wash the chip and the kinetic rate constants for dissociation (Kd) was obtained by fitting the real-time data using BIA evaluation software.

HIV-1 protease = target: T2, HIV-1 protease (Human immunodeficiency virus type 1 group M subtype B, UniProt P04585); test: Inhibition assay of recombinant HIV-1 protease activity (fluorescent); type: biochemical
T2 construct: The recombinant HIV-1 protease (PR) was expressed and purified, as previously described; made in house
Procedure: The recombinant HIV-1 protease (PR) was expressed and purified, as previously described. HIV-1 PR was diluted in reaction buffer. The compounds were added and incubated for 30 min at room temperature. Fluorescent substrate DABCYL-γ-Abu-Ser-Gln-Asn-Tyr-Pro-Ile-Val-Gln-EDANS (Anaspec, San Jose, USA) was added to initiate the reaction. The mixture was allowed to react for 90 min and the change of the fluorescent signal was monitored. Negative (double distilled water) and positive (1 μM indinavir) controls were included. The percent inhibition of PR activity was calculated.

[6] = MTT-based cytotoxicity assay, Jurkat/HIV-1IIIB; type: cell-based; conditions: human, Jurkat/HIV-1IIIB cells
Procedure: as §3

H9/HIV-1IIIB [7] = test: ELISA in chronically infected H9/HIV-1IIIB cells; type: cell-based; conditions: Human immunodeficiency virus 1
Procedure: Chronically infected cell with HIV-1IIIB (H9/HIV-1IIIB) were washed three times with PBS to remove free virus particle. 200 µL/well (3 × 10^5 cells/mL) of the cell suspension was cultured for three days in a 96-well culture plate with different concentrations of compound. The p24 antigen in the culture supernatants was assayed by ELISA.

H9/HIV-1IIIB [8] = test: MTT-based cytotoxicity assay, H9/HIV-1IIIB; type: cell-based; conditions: 3 days of incubation; listed as 7-Hydroxymethyl-CPT
Procedure: as §3

[9] = MTT-based cytotoxicity assay, H9/HIV-1IIIB; type: cell-based; conditions: human, H9/HIV-1IIIB cells; H9/HIV-1IIIB, MTT, 3 days
Procedure: as §3

HIV-1IIIB/H9 = test: Co-cultivation assay (cell-to-cell fusion C8166 with H9/HIV-1IIIB); type: cell-based
Procedure: Cell-to-cell fusion between normal C8166 cells and H9 cells chronically infected withHIV-1IIIB was quantified under an inverted microscope. First, 3 × 10^4 C8166 cells co-cultured with 1 × 10^4 H9/HIV-1IIIB cells in the presence or absence of the compound at varying concentrations. They were incubated at 37 °C in a humidified atmosphere of 5% CO2. Dextran sulfate (DS) was used as positive control. After 6 h incubation, the number of syncytia was scored under an inverted microscope.

[10] = target: T3, HIV-1 reverse transcriptase (Human immunodeficiency virus type 1 group M subtype B, UniProt P04585); test: Inhibition assay of recombinant HIV-1 RT activity (ELISA); type: biochemical
T3 construct: purchased Roche, Mannheim, Germany
Procedure: HIV-1 reverse transcriptase (RT) activity was measured by the ELISA RT kit using a commercially available kit (Roche, Mannheim, Germany) according to the instructions of the manufacturer. The compounds were incubated with DIG-labeled reaction mixture at 37 °C for 2 h, then anti-DIG-POD solution was added, followed by substrate ABTS. Foscarnet was used as a positive control. The absorbency at 405 nm/490 nm was read on the Bio-Tek ELx 800 ELISA reader.

[11] = design: method as in PMID 12775425; conditions: cited from earlier work
[12] = Human immunodeficiency virus 1, 72 h, C8166, HIV-1IIIB, syncytia, 3 days, read-out: EC50
[13] = Human immunodeficiency virus 2, 72 h, C8166, HIV-2ROD, syncytia, 3 days, read-out: EC50
[14] = Human immunodeficiency virus 2, 72 h, C8166, HIV-2CBL-20, syncytia, 3 days, read-out: EC50
[15] = Human immunodeficiency virus 1, 168 h, PBMC, HIV-1KM018, p24, 7 days, read-out: EC50
[16] = Human immunodeficiency virus 2, C8166, 72 h
[17] = cell-free system, in words, listed as 7-hydroxymethyl-CPT

## CC[C@@]1(O)C(=O)OCc2c1cc1n(c2=O)Cc2cc3c([N+](=O)[O-])cccc3nc2-1 [9-nitrocamptothecin (9NC), 9-nitrocamptothecin]
HIV-1 [1]
  HIV-1 replication: reduced
HIV-1 [2]
  inhibition of HIV-1 replication: showed inhibition
HIV-1 [3]
  tumor necrosis factor-mediated activation of HIV-1: inhibited

## Cc1cn([C@H]2C[C@H](N=[N+]=[N-])[C@@H](CO)O2)c(=O)[nH]c1=O [AZT, reference compound]
HIV-1IIIB; C8166, HIV-1IIIB, syncytia, 3 days
  EC50: 0.003 ± 0.0003 µg/mL (≈ 0.0112 µM)
HIV-1KM018; PBMC, HIV-1KM018, p24, 7 days
  EC50: 0.0024 ± 0.0003 µg/mL (≈ 0.00898 µM)
PBMC
  CC50: 0.45(mg/ml
C8166
  CC50: 1.12(mg/ml)

## CC[C@@]1(O)C(=O)OCc2c1cc1n(c2=O)Cc2cc3ccccc3nc2-1 [Compound 1, Camptothecin]
Equine anemia virus
  inhibition of replication of equine anemia virus: weakly inhibit
HIV-1IIIB; [12]
  EC50: 0.0057 ± 0.0001 µg/mL (≈ 0.0164 µM)
HIV
  inhibition of replication of HIV: weakly inhibit
HIV-2ROD; [13]
  EC50: 0.0067 ± 0.0001 µg/mL (≈ 0.0192 µM)
HIV-2CBL-20; [14]
  EC50: 0.004 ± 0.0003 µg/mL (≈ 0.0115 µM)
HIV-1KM018; [15]
  EC50: 0.0074 ± 0.0011 µg/mL (≈ 0.0212 µM)
[4]; PBMC (peripheral blood mononuclear cells), PHA-stimulated, PBMC, MTT, read-out: CC50
  CC50 at 3 days: 0.0759 ± 0.0131 µg/mL (≈ 0.218 µM)
C8166; 3 days
  CC50: 137.8 ± 7.8 ng/mL (≈ 0.396 µM)
[5]; C8166 cells, C8166, MTT, 3 days, read-out: CC50
  CC50 at 3 days: 0.138 µg/mL (≈ 0.396 µM)

## CC[C@@]1(O)C(=O)OCc2c1cc1n(c2=O)Cc2cc3cc(O)ccc3nc2-1 [Compound 2, 10-hydroxycamptothecin]
HIV-1IIIB; Human immunodeficiency virus 1, C8166, 72 h
  EC50: 0.0334 ± 0.0003 µg/mL (≈ 0.0917 µM)
HIV-2ROD; [16]
  EC50: 0.025 ± 0.0009 µg/mL (≈ 0.0686 µM)
HIV-2CBL-20; [16]
  EC50: 0.0132 ± 0.001 µg/mL (≈ 0.0362 µM)
HIV-1KM018; Human immunodeficiency virus 1, PBMC, 168 h
  EC50: 0.0105 ± 0.0004 µg/mL (≈ 0.0288 µM)
[4]; PBMC, MTT, read-out: CC50
  CC50 at 3 days: 0.0363 ± 0.0118 µg/mL (≈ 0.0996 µM)
[5]; C8166, MTT, 3 days, read-out: CC50
  CC50 at 3 days: 0.141 ± 0.0097 µg/mL (≈ 0.387 µM)

## CC[C@@]1(O)C(=O)OCc2c1cc1n(c2=O)Cc2c-1nc1ccccc1c2CO [Compound 3, 7-Hydroxymethylcamptothecin]
HIV-1 integrase
  Kd: 64.9 µM
HIV-1 integrase; [17]
  inhibition of integrase: no inhibition; also recorded: did not show any inhibition
HIV-1IIIB; [12]
  EC50: 0.0008 ± 0.0002 µg/mL (≈ 0.00211 µM)
HIV-1 protease
  EC50: > 106 µM
HIV-1 protease; [17]
  inhibition of protease: no inhibition; also recorded: did not show any inhibition
[6]
  CC50 at 3 days: 0.041 µg/mL (≈ 0.108 µM)
HIV-2ROD; [13]
  EC50: 0.0024 ± 0.0002 µg/mL (≈ 0.00634 µM)
H9/HIV-1IIIB [7]
  EC50: > 17 µg/mL
H9/HIV-1IIIB [8]
  selective killing of chronically infected cells (H9/HIV-1IIIB compared with uninfected H9): no selective killing
[9]
  CC50 at 3 days: 0.0157 µg/mL (≈ 0.0415 µM)
HIV-2CBL-20; [14]
  EC50: 0.0005 ± 0.0001 µg/mL (≈ 0.00132 µM)
HIV-1IIIB/H9; Human immunodeficiency virus 1, C8166 with HIV-1IIIB/H9, co-cultivation, 6 h
  EC50: > 2 µg/mL
HIV-1IIIB/H9; in words
  inhibition of viral cell-to-cell transmission: no inhibition
[10]
  EC50: > 44.9 µM
[10]; [17]
  inhibition of reverse transcriptase: no inhibition; also recorded: did not show any inhibition
HIV-1KM018; [15]
  EC50: 0.0009 ± 0.0001 µg/mL (≈ 0.00238 µM)
[4]
  CC50 at 3 days: 0.06 ± 0.0101 µg/mL (≈ 0.159 µM)
[5]
  CC50 at 3 days: 0.159 ± 0.0137 µg/mL (≈ 0.419 µM)

## CC[C@@]1(O)C(=O)OCc2c1cc1n(c2=O)Cc2cc3c(CN(C)C)c(O)ccc3nc2-1 [Topotecan]
[11]
  treatment of AIDS-related progressive multifocal leukoencephalopathy: efficient
